The SangsterLogP compilation

What was measured:
[1] = method code SF-AS, from DOI: 10.1248/bpb1978.4.759, PMID: 7320829
[2] = method code SF-HPLC, from PMID: 9554875; settings: pH 6.8
[3] = method code SF, from DOI: 10.1021/jm00294a005, PMID: 5000561
[4] = method code SF-RC, from DOI: 10.1016/j.nucmedbio.2007.12.005, PMID: 18355688; settings: pH 7.4
[5] = method code SF-HPLC, from DOI: 10.1016/0731-7085(91)80215-u, PMID: 1821151; settings: pH 7.4
[6] = method code SF-HPLC, from DOI: 10.1248/cpb.47.1081, PMID: 10478463; settings: pH 6.5
[7] = method code SF-AS, from DOI: 10.1021/jm00234a001, PMID: 1003419
[8] = method code SF-HPLC, from DOI: 10.1016/0378-5173(90)90181-3; settings: pH 7.4
[9] = method code SF-AS, from DOI: 10.1016/0378-5173(85)90003-1
[10] = method code SF-HPLC, from DOI: 10.1016/j.bmc.2015.09.009, PMID: 26385444
[11] = method code SF-AS, from DOI: 10.1016/s0020-1693(00)85781-3
[12] = not given; remark: listed apart in the source
[13] = method code SF-AS, from DOI: 10.1002/ardp.19853180604, PMID: 4026543; settings: pH 7.4
[14] = not given; remark: listed apart in the source
[15] = method code SF-HPLC, from DOI: 10.1016/s0223-5234(98)80037-8; settings: pH 7.4
[16] = not given; remark: listed apart in the source
[17] = method code SF-RC, from DOI: 10.1016/j.nucmedbio.2014.05.001, PMID: 24969632; settings: pH 7.4
[18] = method code SF-AS, from DOI: 10.3109/03639048709068705
[19] = not given; remark: listed apart in the source
[20] = not given; remark: listed apart in the source
[21] = method code SF-HPLC, from DOI: 10.1016/s0024-3205(00)00615-9, PMID: 10901288; settings: pH 5.0
[22] = method code SF-HPLC, from DOI: 10.1080/01483919108049396; settings: pH 7.0

Compound `O=C1NC(=O)C(c2ccccc2)(c2ccccc2)N1S(=O)(=O)c1ccc([N+](=O)[O-])cc1` has a logP [1] of 4.04.
With `COc1cccc2c1OP(=O)(OC[C@@H]1C=C[C@H](n3cc(C)c(=O)[nH]c3=O)O1)OC2` (some centres not stated) the logD [2] was 0.15.
`CO[C@@H]1[C@@H](O[C@@H]2O[C@H](C)[C@@H](O[C@H]3C[C@@](C)(O)[C@@H](OC(=O)CC(C)C)[C@H](C)O3)[C@H](N(C)C)[C@H]2O)[C@@H](CC=O)C[C@@H](C)[C@@H](O)/C=C/C=C/C[C@@H](C)OC(=O)C[C@H]1O` gave a logP [3] of 2.18.
Work on `CCCCN(C)C(=O)Cc1c(-c2ccc(Cl)cc2)nc2c(Cl)cc(Cl)cn12` yielded a logD [4] of 2.2.
In the case of `CCC(C(=O)OCC1CCCCC1)C(COC(=O)c1ccccc1)c1cncn1C` (configuration not stated), the logD [5] is reported as 5.47.
Compound `CN(C(=O)Cc1c(-c2ccc(Cl)cc2)nc2c(Cl)cc(Cl)cn12)c1ccccc1` has a logD [4] of 2.2.
Work on `Clc1ccc2c(c1)CCc1cccnc1C2=C1CCNCC1` yielded a logP of 2.56.
Compound `CO/N=C(/C(=O)NC1C(=O)N2C(C(=O)OCc3oc(=O)oc3C)=CCSC12)c1csc(N)n1` (configuration not stated) has a logD [6] of 0.17.
Work on `OCC1OC(Oc2cc(OC3OC(CO)C(O)C(O)C3O)c(I)cc2I)C(O)C(O)C1O` (configuration not stated) yielded a logP [7] of -0.25.
`O=C(OCn1ncc2c(=O)[nH]cnc21)c1cccc(Cn2ccnc2)c1` gave a logD [8] of 0.97.
Work on `CCC(=O)OC1C(C)OC(OC2C(C)OC(OC3C(CC=O)CC(C)C(O)/C=C/C=C/CC(C)OC(=O)CC(OC(C)=O)C3OC)C(O)C2N(C)C)CC1(C)O` (configuration not stated) yielded a logP [3] of 1.38.
In the case of `Cc1nnc(SCC2=C(C(=O)OCOC(=O)C(C)(C)C)N3C(=O)C(NC(=O)Cn4cnnn4)C3SC2)s1` (configuration not stated), the logD ([9]; pH 4.5) is reported as 1.34.
With `CC1=C(C(=O)Nc2nc3ccccc3s2)C(c2ccc(C(F)(F)F)cc2)NC(=S)N1` (configuration not stated) the logP [10] was 2.92.
Compound `CCC(C(=O)OCC1CCCCC1)C(COC(C)=O)c1cncn1C` (configuration not stated) has a logD [5] of 3.86.
For `OC(CCCN1CCC(C(O)(c2ccccc2)c2ccccc2)CC1)c1ccccc1` (configuration not stated), the logP was 3.9.
Work on `CC(C)(C)c1ccc2c(c1)COCCOCCOCCOCCOCCOC2` yielded a logP [11] of 1.71.
For `OCC1OC(Oc2c(I)cc(I)c(OC3OC(CO)C(O)C(O)C3O)c2I)C(O)C(O)C1O` (configuration not stated), the logP [7] was -0.74.
Compound `COc1cc(C=Cc2ccncc2)ccc1C=Cc1ccncc1` has a logP [12] of 3.73.
With `CN1CCC(=C2c3ccccc3CCc3cccnc32)CC1` the logP was 3.59.
With `C(=Cc1ccccn1)c1ccc(C=Cc2ccccn2)cc1` the logP [12] was 3.75.
With `COc1ccc(N2C(=O)CSC2=Nn2c(C)nc3ccccc3c2=O)cc1` the logD [13] was -1.23.
`Cc1nc2ccccc2c(=O)n1N=C1SCC(=O)N1c1ccc(F)cc1` showed a logD [13] of -1.36.
With `Cc1cccc2c1Oc1ccccc1C2NC(=O)CN(C)C` (configuration not stated) the logP [14] was 2.7.
`O=C(OCn1ncc2c(=O)[nH]cnc21)c1cccc(CN2CCOCC2)c1` showed a logD [8] of 1.12.
Compound `Cc1ccc(N2C(=O)CSC2=Nn2c(C)nc3ccccc3c2=O)cc1` has a logD [13] of -1.12.
In the case of `CC1=C(C(=O)Nc2nc3ccccc3s2)C(c2ccc(F)cc2)NC(=S)N1` (configuration not stated), the logP [10] is reported as 2.18.
`CCC(=O)OCC(c1cncn1C)C(CC)C(=O)OCC1CCCCC1` (configuration not stated) showed a logD [5] of 4.4.
Work on `CCOC(=O)OC(C)OC(=O)C1=CCSC2C(NC(=O)C(=NOC)c3csc(N)n3)C(=O)N12` (configuration not stated) yielded a logD [6] of 0.96.
With `COc1cc(C=Cc2ccccn2)ccc1C=Cc1ccccn1` the logP [12] was 4.25.
Work on `CC(C)Cc1ccc(C(C)C(=O)OCN2C(=O)c3ccccc3C2=O)cc1` (configuration not stated) yielded a logD [15] of 5.36.
With `CC(C)(C)C(=O)OCOC(=O)C1=C(CSc2nncs2)CSC2C(NC(=O)Cn3cnnn3)C(=O)N12` (configuration not stated) the logD ([9]; pH 4.6) was 1.45.
Work on `O=C1C(CCS(=O)c2ccccc2)C(=O)N(c2ccccc2)N1c1ccccc1` (configuration not stated) yielded a logP [16] of 3.56.
`Nc1ccc(S(=O)(=O)N2C(=O)NC(=O)C2(c2ccccc2)c2ccccc2)cc1` showed a logP [1] of 3.27.
`O=C(N1CCN(C(c2ccccc2)c2ccccc2)CC1)n1nnc2ccccc21` showed a logD [17] of 3.61.
Compound `COc1ccc2c(c1)c(CC(=O)OCN1C(=O)c3ccccc3C1=O)c(C)n2C(=O)c1ccc(Cl)cc1` has a logD [15] of 5.64.
Work on `CCCCC(=O)OC(CNC(C)C)COc1cccc2ccccc12` (configuration not stated) yielded a logP [18] of 6.3.
`CN1CCN(CCCN2c3ccccc3Sc3ccc(C(F)(F)F)cc32)CC1` gave a logP [19] of 4.71.
`COc1ccc2cc(C(C)C(=O)OCC(O)CO)ccc2c1` (configuration not stated) gave a logP [20] of 2.65.
For `COc1ccc2cc(C(C)C(=O)OCC(COC(=O)C(C)c3ccc4cc(OC)ccc4c3)OC(=O)C(C)c3ccc4cc(OC)ccc4c3)ccc2c1` (configuration not stated), the logP [20] was 6.84.
Compound `COc1ccc2cc(C(C)C(=O)OCC3COC(C)(C)O3)ccc2c1` (configuration not stated) has a logP [20] of 4.23.
In the case of `CCCCCCCC(=O)OC(CNC(C)C)COc1cccc2ccccc12` (configuration not stated), the logP [18] is reported as 7.87.
`CCN(CC)CC(=O)NC1c2ccccc2Oc2c(C)cccc21` (configuration not stated) showed a logP [14] of 3.73.
`c1ccc2c(c1)COCCOCCOCc1ccccc1COCCOC2` gave a logP [11] of 2.21.
`O=C1C(CCS(=O)(=O)c2ccccc2)C(=O)N(c2ccccc2)N1c1ccccc1` gave a logP [16] of 3.51.
Work on `CCN(CC)C(=O)C(C#N)=Cc1cc(OC(=O)NC(C)(C)C)c(O)c([N+](=O)[O-])c1` yielded a logD [21] of 1.8.
For `O=C1NC(=O)C(c2ccccc2)(c2ccccc2)N1S(=O)(=O)c1ccc(O)cc1`, the logD ([1]; pH 7.0) was 1.62.
`O=C(OCn1ncc2c(=O)[nH]cnc21)c1ccc(CN2CCOCC2)cc1` showed a logD [8] of 1.13.
Compound `CC(=O)Oc1ccccc1C(=O)OCN1C(=O)c2ccccc2C1=O` has a logD [15] of 3.23.
`CCN(CC)CCCC(C)Nc1c2ccc(Cl)cc2nc2ccc(OC)cc12` (configuration not stated) gave a logP [19] of 5.09.
`Cc1cccc2c1Oc1cc(Cl)ccc1C2NC(=O)CN(C)C` (configuration not stated) showed a logP [14] of 3.44.
`O=C(N1CCC(C(c2ccc3c(c2)OCO3)c2ccc3c(c2)OCO3)CC1)n1cncn1` gave a logD [17] of 3.32.
Work on `O=C(Nc1ncnc2c1ncn2[C@@H]1O[C@H](CO)[C@@H](O)[C@H]1O)c1ccccc1` yielded a logD [22] of -0.1.
For `CON=C(C(=O)NC1C(=O)N2C(C(=O)OCOC(=O)C(C)(C)C)=CCSC12)c1csc(N)n1` (configuration not stated), the logD [6] was 1.57.
Compound `CCCCNC(=O)Oc1cc(/C=C(\C#N)C(=O)N(CC)CC)cc([N+](=O)[O-])c1O` has a logD [21] of 1.98.
With `CC(=O)OCC1=C(C(=O)OCOC(=O)C(C)(C)C)N2C(=O)C(NC(=O)CSc3ccncc3)C2SC1` (configuration not stated) the logD ([9]; pH 4.6) was 1.63.
For `CCCCN(C)C(=O)Cc1c(-c2ccccc2)nc2c(Cl)cc(Cl)cn12`, the logD [4] was 2.14.
With `Cc1cn(C2C=CC(COP3(=O)OCc4cc(Cl)ccc4O3)O2)c(=O)[nH]c1=O` (configuration not stated) the logD [2] was 0.88.
For `CCN1CCN(Cc2ccc(OC)c(OC)c2OC)CC1`, the logP [19] was 1.69.
For `CC1=C(C(=O)Nc2nc3ccccc3s2)C(c2ccc(N(C)C)cc2)NC(=S)N1` (configuration not stated), the logP [10] was 2.22.
With `CCCC(=O)OC(CNC(C)C)COc1cccc2ccccc12` (configuration not stated) the logP [18] was 5.56.
For `CCNC(=O)Oc1cc(/C=C(\C#N)C(=O)N(CC)CC)cc([N+](=O)[O-])c1O`, the logD [21] was 0.82.
`CCCC1CC(C(=O)NC(C(C)O)C2OC(SC)C(O)C(O)C2O)N(C)C1` (configuration not stated) showed a logP [3] of 0.2.
For `Cc1cn(C2C=CC(COP3(=O)OCc4cc([N+](=O)[O-])ccc4O3)O2)c(=O)[nH]c1=O` (configuration not stated), the logD [2] was 0.18.
`CCc1ccc2c(c1)COCCOCCOCCOCCOCCOC2` gave a logP [11] of 0.98.
With `O=C(OC(C(F)(F)F)C(F)(F)F)N1CCN(Cc2cccc(Oc3ccccc3)c2)CC1` the logD [17] was 5.
Compound `CNC(=O)c1c(I)c(O[C@@H]2O[C@H](CO)[C@@H](O)[C@H](O)[C@H]2O)c(I)c(O[C@@H]2O[C@H](CO)[C@@H](O)[C@H](O)[C@H]2O)c1I` has a logP [7] of -1.57.
`CC1=C(CC(=O)O)c2cc(F)ccc2/C1=C/c1ccc(S(C)(=O)=O)cc1` showed a logP [16] of 3.29.
